# Measurements reported in US5789439A, “Pharmaceutical use of forskolin derivatives” (Nippon Kayaku Kabushiki Kaisha, priority 1990, dated 1998).
# Where a name gives a salt, the structure may show the parent alone.
# Tests used:
# [1] = system: ADP-induced aggregation of rabbit blood thrombocyte; test: ADP-induced platelet aggregation inhibition, rabbit platelet rich plasma; type: cell-based; settings: Oryctolagus cuniculus, rabbit PRP, ADP 3×10^-6 M, mean, n = 5, read-out: Platelet aggregation inhibitory action (IC50), ADP-induced aggregation
# Method: The platelet aggregation inhibitory action of NKH-477 was examined on collagen-induced aggregation and ADP-induced aggregation of rabbit blood thrombocyte. The male Japanese white rabbits (body weight: 2.4-2.8 kg, procured from Tokyo Experimental Animals Co., Ltd.) were divided into groups of 5. The rabbits were etherized and blood was collected from the carotid artery of each rabbit. A 3.8% sodium citrate solution (final concentration: 0.38%) was added to a portion of blood collected from each group of rabbits to obtain platelet rich plasma (PRP). The remaining portion of blood was centrifuged at 3,000 r.p.m. for 15 minutes to obtain platelet poor plasma (PPP). First, permeability of PRP and PPP was determined by using an aggregometer (RMA-31 mfd. by Rika Denki Kogyo K. K.) and set at 0% and 100%, respectively. Separately from the above operation, 250 μl of PRP was placed in a cuvette and after preliminary heating at 37° C. for 2 minutes, 20 μl of specimen was added and incubated under stirring for 2 minutes. Then 10 μl of ADP (Sigma, final conc.: 3×10^-6 M) or collagen (Hormon-Chemie, final conc.: 10 μg/ml) was added and the transmission rate was measured. The maximum transmission rate observed in this operation was termed as the maximum aggregation rate. Recording in this operation was conducted on an ink-written recorder (B-381L mfd. by Rika Denki Kogyo K. K.). […]
# [2] = system: epinephrine-induced aggregation; test: Epinephrine-induced aggregation after intravenous administration to healthy adults; type: in vivo, healthy adults (human); settings: i.v. 0.8 μg/kg/min for one hour, mean of four subjects
# Method: A freeze-dried preparation comprising NKH-477 was dissolved in a physiological saline and administered intravenously to four healthy adults at a rate of 0.8 μg/kg/min for one hour. The degrees of ADP-induced aggregation, epinephrine-induced aggregation and collagen-induced aggregation upon end of administration were measured and compared with those before administration (each figure is the average of measurements on the four subjects).
# canine coronary artery = test: Spasmolytic effect on KCl-induced contraction, canine coronary artery ring; settings: for Inhibition rate, Coronary artery: 30 mM KCl, papaverine 10^-4 M = 100%, mean ± SE, n = 6
# Method: The canine coronary and basilar arteries were extirpated under anesthesia with pentobarbital to prepare the 3 mm wide ring preparation. Each preparation was suspended in a 10-ml organ bath filled with a Krebs-Henseleit solution by applying a static tension of 1.5 g (for the coronary artery) and 1.0 g (for the basilar artery). The nutrient solution was maintained at 37° C. and aerated with a 95% 02 /5% CO2 gas. The isometric mascular tension was measured with an FD pickup (TB-611T mfd. by Nihon Kohden K. K.) and recorded on a recorder (TI-104 mfd. by Tokai IRIKA K. K.).
# After about 2 hours of equilibrium time, contraction was induced with 30 mM of KCl (for coronary artery) and 35 mM of KCl (for basilar artery), and after contraction was stabilized, NKH-477 was administered cumulatively. The spasmolytic effect was expressed as percentages of the inhibition, with the maximal inhibition obtained with papaverine hydrochloride (10^-4 M) being supposed to have shown 100% inhibition.
# femoral blood flow = test: Effect on femoral blood flow in anesthetized dogs; type: in vivo, dog; settings: for Increase in femoral blood flow rate: mean ± SE
# Method: (1) Effect on femoral blood flow in anesthetized dogs was tested.
# A non-cannulating probe (FF-030T mfd. by Nihon Kohden K. K.) of an electromagnetic flow meter (MFV-2100 mfd. by Nihon Kohden K. K.) was placed around the left femoral artery of a dog anesthetized with pentobarbital to measure femoral bloow flow rate. The femoral blood flow rate was recorded on an ink-written recorder (WI-681G by Nihon Kohden K. K.).
# NKH-477 was dissolved in a physiological saline and injected into the right cephalic vein through a Nelaton's tube.
# [3] = system: total peripheral vascular resistance; test: Effect on peripheral vascular resistance in anesthetized dogs; type: in vivo, dog; settings: for Change in total peripheral vascular resistance: mean ± SE
# Method: (2) Effect on peripheral vascular resistance in an anesthetized dogs was examined. Blood pressure was measured with a pressure transducer (CP-01 mfd. by Century Technology Co.) connected to a polyethylene tube inserted into a right femoral artery of a dog anesthetized with pentobarbital, and the cardiac output was measured according to a thermodilution method by using a dilution type cardiac output counter (MLC-4200 mfd. by Nihon Kohden K. K.) and a 7F thermodilution catheter (TC-704 mfd. by Nihon Kohden K. K.) inserted into the pulmonary artery through the right femoral vein. The total peripheral vascular resistance was determined by dividing the mean blood pressure by the cardiac output. NKH-477 was dissolved in a physiological saline and infused into a right cephalic vein at rates of 0.15, 0.3 and 0.6 μg/kg/min (flow rate: 0.2 ml/min) for 2 hours by using a continuous injection pump (Model 975C mfd. by Harvard Corp.). For the control, physiological saline was similarly infused at a rate of 0.2 ml/min.
compound,measurement,setting,value
"C=C[C@@]1(C)CC(=O)[C@]2(O)[C@@]3(C)[C@@H](O)CCC(C)(C)[C@@H]3[C@H](OC(=O)CCN(C)C)[C@H](OC(C)=O)[C@@]2(C)O1 [NKH-477, 6-(3-dimethylaminopropionyl)forskolin hydrochloride]",IC50,[1],0.234 µM
same,Epinephrin-induced aggregation upon end of administration,[2]; before administration 47.0%,31.8%
same,"Inhibition rate, Epinephrin-induced aggregation",[2],39.6%
same,IC50,"canine coronary artery; Canis lupus familiaris, KCl-induced contraction, n=6",0.0673 µM
same,inhibitory action against KCl-induced contraction in the coronary artery,"canine coronary artery; Table 3, in words",concentration-dependent inhibitory action
same,"Inhibition rate, Coronary artery","canine coronary artery; line 1 of 5, printed 10^-9 M",6.1 ± 1.6%
same,"Inhibition rate, Coronary artery","canine coronary artery; line 2 of 5, printed 10^-9 M",23.3 ± 3.2%
same,"Inhibition rate, Coronary artery","canine coronary artery; line 3 of 5, printed 10^-9 M",58.8 ± 3.9%
same,"Inhibition rate, Coronary artery","canine coronary artery; line 4 of 5, printed 10^-9 M",86.7 ± 1.5%
same,"Inhibition rate, Coronary artery","canine coronary artery; line 5 of 5, printed 10^-9 M",94.5 ± 1.3%
same,Increase in femoral blood flow rate,"femoral blood flow; 1 μg/kg i.v., n = 6 (SE 2.9 printed)",7.6%
same,Increase in femoral blood flow rate,"femoral blood flow; 3 μg/kg i.v., n = 6 (SE 5.2 printed)",22.9%
same,Increase in femoral blood flow rate,"femoral blood flow; 10 μg/kg i.v., n = 6 (SE 17.7 printed)",61.7%
same,blood flow rate in the femoral artery,femoral blood flow; intravenous injection of 1-10 μg/kg,increased the blood flow rate in the femoral artery dose-dependently
same,Increase in femoral blood flow rate,"femoral blood flow; printed 30 μmg/kg i.v., n = 6 (SE 28.7 printed)",62.2%
same,Change in total peripheral vascular resistance,"[3]; 0.15 μg/kg/min, 10 min from start of infusion, control 2.1 ± 1.5",-2.7 ± 2.4%
same,Change in total peripheral vascular resistance,"[3]; 0.15 μg/kg/min, 30 min after cessation of infusion, control 31.4 ± 13.9",7.4 ± 7.4%
same,Change in total peripheral vascular resistance,"[3]; 0.15 μg/kg/min, 30 min from start of infusion, control 4.0 ± 2.3",-6.2 ± 3.7%
same,Change in total peripheral vascular resistance,"[3]; 0.15 μg/kg/min, 60 min after cessation of infusion, control 29.1 ± 9.7",15.7 ± 10.4%
same,Change in total peripheral vascular resistance,"[3]; 0.15 μg/kg/min, 60 min from start of infusion, control 13.8 ± 3.4",-9.1 ± 5.7%
same,Change in total peripheral vascular resistance,"[3]; 0.15 μg/kg/min, 120 min after cessation of infusion, control 26.8 ± 12.5",12.8 ± 7.2%
same,Change in total peripheral vascular resistance,"[3]; 0.15 μg/kg/min, 120 min from start of infusion, control 20.5 ± 9.2",-5.7 ± 6.6%
same,Change in total peripheral vascular resistance,"[3]; 0.3 μg/kg/min, 10 min from start of infusion, control 2.1 ± 1.5",-3.7 ± 2.9%
same,Change in total peripheral vascular resistance,"[3]; 0.3 μg/kg/min, 30 min after cessation of infusion, control 31.4 ± 13.9",6.7 ± 7.0%
same,Change in total peripheral vascular resistance,"[3]; 0.3 μg/kg/min, 30 min from start of infusion, control 4.0 ± 2.3",-10.4 ± 3.1%
same,Change in total peripheral vascular resistance,"[3]; 0.3 μg/kg/min, 60 min after cessation of infusion, control 29.1 ± 9.7",17.1 ± 6.0%
same,Change in total peripheral vascular resistance,"[3]; 0.3 μg/kg/min, 60 min from start of infusion, control 13.8 ± 3.4",-10.2 ± 4.1%
same,Change in total peripheral vascular resistance,"[3]; 0.3 μg/kg/min, 120 min after cessation of infusion, control 26.8 ± 12.5",17.2 ± 9.2%
same,Change in total peripheral vascular resistance,"[3]; 0.3 μg/kg/min, 120 min from start of infusion, control 20.5 ± 9.2",-11.5 ± 4.7%
same,Change in total peripheral vascular resistance,"[3]; 0.6 μg/kg/min, 10 min from start of infusion, control 2.1 ± 1.5",-18.3 ± 8.6%
same,Change in total peripheral vascular resistance,"[3]; 0.6 μg/kg/min, 30 min after cessation of infusion, control 31.4 ± 13.9",-13.4 ± 7.6%
same,Change in total peripheral vascular resistance,"[3]; 0.6 μg/kg/min, 30 min from start of infusion, control 4.0 ± 2.3",-28.1 ± 5.9%
same,Change in total peripheral vascular resistance,"[3]; 0.6 μg/kg/min, 60 min after cessation of infusion, control 29.1 ± 9.7",-4.1 ± 9.1%
same,Change in total peripheral vascular resistance,"[3]; 0.6 μg/kg/min, 60 min from start of infusion, control 13.8 ± 3.4",-29.0 ± 6.4%
same,Change in total peripheral vascular resistance,"[3]; 0.6 μg/kg/min, 120 min after cessation of infusion, control 26.8 ± 12.5",11.8 ± 12.9%
same,Change in total peripheral vascular resistance,"[3]; 0.6 μg/kg/min, 120 min from start of infusion, control 20.5 ± 9.2",-28.0 ± 5.4%
same,recovery of total peripheral vascular resistance,[3]; after cessation of the infusion,substantially restored in 2 hours after cessation of the infusion
same,"total peripheral vascular resistance, course in words",[3]; i.v. infusion 0.15-0.6 μg/kg/min for 2 hours,decreased gradually after the start of infusion
